Test results as given in patent US8183414B2, “N-(1-phenyl-2-arylethyl)-4,5-dihydro-2H-pyrrol-5-amine compounds as subtype selective modulators of ALPHA2B or ALPHA2B and ALPHA2C adrenoceptors” (Allergan, Inc., priority 2008, dated 2012).
Like-named read-outs stand apart in the source and are kept apart here.

Experiments:
Format in all cases: cell-based
α2C adrenergic receptor = target: T1, α2C adrenergic receptor (Homo sapiens, UniProt P18825); test: RSAT (Receptor Selection and Amplification Technology) assay, α2C; settings: for EC50: cells expressing the receptor alone, receptor-mediated growth response, NA = not active; for RSAT Rel Eff α2C: relative efficacy compared to a standard full agonist
T1 construct: expressed in transfected cells
T1 sequence (P18825 1-462): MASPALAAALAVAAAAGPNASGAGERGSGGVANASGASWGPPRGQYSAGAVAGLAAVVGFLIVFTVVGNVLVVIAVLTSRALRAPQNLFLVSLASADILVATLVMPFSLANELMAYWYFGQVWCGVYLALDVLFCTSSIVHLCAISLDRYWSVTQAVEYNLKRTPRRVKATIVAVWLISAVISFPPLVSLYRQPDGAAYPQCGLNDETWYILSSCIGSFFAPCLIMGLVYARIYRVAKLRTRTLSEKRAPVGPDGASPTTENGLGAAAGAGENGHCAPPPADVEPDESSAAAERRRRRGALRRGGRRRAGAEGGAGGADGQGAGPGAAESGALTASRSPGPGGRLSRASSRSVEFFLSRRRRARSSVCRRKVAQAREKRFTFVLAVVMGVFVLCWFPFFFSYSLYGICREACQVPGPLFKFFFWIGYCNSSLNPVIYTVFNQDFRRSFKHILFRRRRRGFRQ
Protocol: (§1) Cells expressing each of the alpha-2 adrenergic receptors alone were incubated with the various compounds and a receptor-mediated growth response was measured.

α2B adrenergic receptor = target: T2, α2B adrenergic receptor (Homo sapiens, UniProt P18089); test: RSAT (Receptor Selection and Amplification Technology) assay, α2B; settings: for EC50 / RSAT EC50 α2B: cells expressing the receptor alone, receptor-mediated growth response, NA = not active; for RSAT Rel Eff α2B: relative efficacy compared to a standard full agonist
T2 construct: expressed in transfected cells
T2 sequence (P18089 1-450): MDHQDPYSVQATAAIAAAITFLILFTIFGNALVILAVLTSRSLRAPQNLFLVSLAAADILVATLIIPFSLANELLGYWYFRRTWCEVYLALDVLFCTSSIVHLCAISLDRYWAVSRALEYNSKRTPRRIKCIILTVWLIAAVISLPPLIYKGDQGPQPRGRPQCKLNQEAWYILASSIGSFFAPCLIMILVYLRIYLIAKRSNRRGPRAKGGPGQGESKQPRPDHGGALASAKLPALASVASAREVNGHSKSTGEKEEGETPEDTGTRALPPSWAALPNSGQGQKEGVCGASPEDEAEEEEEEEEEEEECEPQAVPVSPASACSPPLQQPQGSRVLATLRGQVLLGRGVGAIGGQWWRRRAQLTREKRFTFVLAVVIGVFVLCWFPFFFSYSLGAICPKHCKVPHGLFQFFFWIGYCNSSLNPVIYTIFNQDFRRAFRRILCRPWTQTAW
Protocol: as §1

α2A adrenergic receptor = target: T3, α2A adrenergic receptor (Homo sapiens, UniProt P08913); test: RSAT (Receptor Selection and Amplification Technology) assay, α2A
T3 construct: expressed in transfected cells
T3 sequence (P08913 1-465): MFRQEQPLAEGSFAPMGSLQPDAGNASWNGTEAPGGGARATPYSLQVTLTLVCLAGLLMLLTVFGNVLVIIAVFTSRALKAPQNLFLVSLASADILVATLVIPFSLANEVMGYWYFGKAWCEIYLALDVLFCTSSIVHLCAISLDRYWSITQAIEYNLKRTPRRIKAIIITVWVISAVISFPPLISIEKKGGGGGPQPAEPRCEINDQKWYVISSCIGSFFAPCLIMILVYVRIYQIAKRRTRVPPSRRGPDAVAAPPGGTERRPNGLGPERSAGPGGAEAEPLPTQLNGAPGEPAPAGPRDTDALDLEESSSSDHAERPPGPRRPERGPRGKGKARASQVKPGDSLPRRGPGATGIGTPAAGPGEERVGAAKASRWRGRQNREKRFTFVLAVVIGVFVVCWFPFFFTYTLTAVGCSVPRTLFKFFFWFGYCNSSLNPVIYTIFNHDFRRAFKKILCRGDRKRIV
Protocol: Novel compounds having this general structure were synthesized and tested for alpha adrenergic activity using the Receptor Selection and Amplification Technology (RSAT) assay (Messier et. al., 1995, Pharmacol. Toxicol. 76, pp. 308-311). Cells expressing each of the alpha-2 adrenergic receptors alone were incubated with the various compounds and a receptor-mediated growth response was measured. The compounds activity is described as its EC50 and relative efficacy compared to a standard full agonist.

SMILES	EC50 (α2C adrenergic receptor)	RSAT Rel Eff α2C (α2C adrenergic receptor)	EC50 (α2B adrenergic receptor; read-out: RSAT EC50 α2B)	RSAT Rel Eff α2B (α2B adrenergic receptor)	also measured
Cc1cccc(C(Cc2ccncc2)NC2=NCCC2)c1C (single isomer, unassigned) [Compound 18]	19.6 nM	(0.43)	3.1 nM	(0.93)	
Cc1cccc(C(Cc2ccncc2)NC2=NCCC2)c1C (single isomer, unassigned) [Compound 19]			210 nM	(0.58)	
Clc1cccc(C(Cc2ccncc2)NC2=NCCC2)c1Cl (centres unmarked) [Compound 1]	48.4 nM	(0.59)	8.9 nM	(1.25)	
Cc1cccc(C(Cc2ccncc2)NC2=NCCC2)c1C (centres unmarked) [Compound 2]	84.8 nM	(0.37)	8.7 nM	(1.04)	
c1ccc(CC(NC2=NCCC2)c2ccccc2)cc1 (centres unmarked) [Compound 3]	14.1 nM	(0.36)	21.3 nM	(0.63)	
Clc1ccccc1C(Cc1ccncc1)NC1=NCCC1 (centres unmarked) [Compound 4]	10.3 nM	(0.56)	38.4 nM	(0.57)	
Fc1c(Cl)cccc1C(Cc1ccncc1)NC1=NCCC1 (centres unmarked) [Compound 5]			10.8 nM	(0.94)	
Cc1cccc(C(Cc2ccccc2)NC2=NCCC2)c1C (centres unmarked) [Compound 6]			2.9 nM	(0.72)	
Clc1cccc(C(Cc2ccccc2)NC2=NCCC2)c1Cl (centres unmarked) [Compound 7]			6.6 nM	(0.88)	
Clc1cccc(C(Cc2ccccc2)NC2=NCCC2)c1 (centres unmarked) [Compound 8]			11.6 nM	(0.71)	
Cc1ccccc1CC(NC1=NCCC1)c1cccc(Cl)c1 (centres unmarked) [Compound 9]	2.8 nM		3.2 nM	(0.62)	
Clc1ccccc1C(Cc1ccccc1)NC1=NCCC1 (centres unmarked) [Compound 10]	13.3 nM	(0.37)	12 nM	(0.51)	
Fc1ccc(CC(NC2=NCCC2)c2cccc(Cl)c2Cl)cc1 (centres unmarked) [Compound 11]			8 nM	(0.80)	
Clc1cccc(C(Cc2ccccc2Br)NC2=NCCC2)c1Cl (centres unmarked) [Compound 12]			8.7 nM	(0.96)	
COc1cccc(CC(NC2=NCCC2)c2cccc(Cl)c2Cl)c1 (centres unmarked) [Compound 13]	12.9 nM	(0.36)	4 nM	(0.97)	
Fc1c(Cl)cccc1C(Cc1ccccc1)NC1=NCCC1 (centres unmarked) [Compound 14]	6.3 nM	(0.36)	8.6 nM	(0.96)	
Cc1c(F)cccc1CC(NC1=NCCC1)c1cccc(Cl)c1Cl (centres unmarked) [Compound 15]			12.8 nM	(0.70)	

SMILES	EC50 (α2C adrenergic receptor)	RSAT Rel Eff α2C (α2C adrenergic receptor)	EC50 (α2B adrenergic receptor; read-out: RSAT EC50 α2B)	RSAT Rel Eff α2B (α2B adrenergic receptor)	also measured
Clc1ccc(Cl)c(CC(NC2=NCCC2)c2cccc(Cl)c2Cl)c1 (centres unmarked) [Compound 16]	12.5 nM	(0.35)	10.5 nM	(1.04)	
Fc1cccc(Cl)c1CC(NC1=NCCC1)c1cccc(Cl)c1Cl (centres unmarked) [Compound 17]			19.5 nM	(0.73)	
Clc1cc(Cl)cc(CC(NC2=NCCC2)c2cccc(Cl)c2Cl)c1 (centres unmarked) [Compound 20]	17.1 nM	(0.46)	2.2 nM	(1.18)	
c1ccc(C(Cc2ccncc2)NC2=NCCC2)cc1 (centres unmarked) [Compound 21]	39.6 nM	(0.34)	59.2 nM	(0.81)	
Clc1ccc(CC(NC2=NCCC2)c2cccc(Cl)c2Cl)c(Cl)c1 (centres unmarked) [Compound 22]			7.1 nM	(1.03)	
Clc1cccc(C(CCc2ccccc2)NC2=NCCC2)c1Cl (centres unmarked) [Compound 23]			57 nM	(0.69)	
c1ccc(C(Cc2ccccn2)NC2=NCCC2)cc1 (centres unmarked) [Compound 24]			214 nM	(0.44)	
c1ccc(C(Cc2cccnc2)NC2=NCCC2)cc1 (centres unmarked) [Compound 25]			81.7 nM	(0.74)	
Clc1ccc(CC(NC2=NCCC2)c2cccc(Cl)c2Cl)cc1Cl (centres unmarked) [Compound 26]			8.6 nM	(0.93)	
Cc1cccc(C(Cc2cccnc2)NC2=NCCC2)c1C (centres unmarked) [Compound 27]				(1.04)	RSAT EC50 α2B (α2B adrenergic receptor): Potent
Clc1cccc(C(Cc2cccnc2)NC2=NCCC2)c1Cl (centres unmarked) [Compound 28, N-(1-(2,3-dichlorophenyl)-2-(pyridin-3-yl)ethyl)-3,4-dihydro-2H-pyrrol-5-amine]				(1.19)	RSAT EC50 α2B (α2B adrenergic receptor): Potent
Cc1cncc(CC(NC2=NCCC2)c2cccc(Cl)c2)c1 (centres unmarked) [Compound 29]	29.8 nM	(0.36)		(1.1)	EC50 (α2A adrenergic receptor; cells expressing the receptor alone, receptor-mediated growth response, NA = not active): 293 nM; RSAT Rel Eff α2A (α2A adrenergic receptor; relative efficacy compared to a standard full agonist): (0.31); RSAT EC50 α2B (α2B adrenergic receptor): Potent
Clc1cccc(C(Cc2cccnc2Cl)NC2=NCCC2)c1 (centres unmarked) [Compound 30]				(1.09)	RSAT EC50 α2B (α2B adrenergic receptor): Potent
Clc1cccc(C(Cc2ccc(Cl)nc2)NC2=NCCC2)c1 (centres unmarked) [Compound 31]				(0.84)	EC50 (α2B adrenergic receptor; RSAT EC50 α2B): 67.2 nM
Cc1c(Br)cncc1CC(NC1=NCCC1)c1cccc(Cl)c1 (centres unmarked) [Compound 32]			11.2 nM	(0.92)	
Cc1cncc(CC(NC2=NCCC2)c2cccc(Cl)c2)c1C (centres unmarked) [Compound 33]			19.9 nM	(0.91)	
Cc1cccc(C(Cc2cncc(C)c2C)NC2=NCCC2)c1 (centres unmarked) [Compound 34]			5.1 nM	(0.85)	
